From the kinase profiling compilation of Christmann-Franck et al. (2016)
Each block holds one compound with its values, some of them ahead of it.

What was measured:
Test in all cases: KINOMEscan competition binding
Settings in all cases: compound 10.0 µM
[1] = target: CAMKK2 (human) (UniProt Q96RR4)
[2] = target: CSNK1G1 (human) (UniProt Q9HCP0)
[3] = target: MINK1 (human) (UniProt Q8N4C8)
[4] = target: MAPK7 (human) (UniProt Q13164)
[5] = target: MAPK11 (human) (UniProt Q15759)
[6] = target: PIK3CB (human) (UniProt P42338)
[7] = system: KIT (human), P10721 [V559D]
[8] = target: MYLK2 (human) (UniProt Q9H1R3)
[9] = target: PRPF4B (human) (UniProt Q13523)
[10] = target: RPS6KA6 KD2 (human) (UniProt Q9UK32)
[11] = target: SRC (human) (UniProt P12931)
[12] = target: EPHB1 (human) (UniProt P54762)
[13] = target: IRAK3 (human) (UniProt Q9Y616)
[14] = target: PIK3CA (human) (UniProt P42336)
[15] = target: BRSK2 (human) (UniProt Q8IWQ3)
[16] = target: MAP3K15 (human) (UniProt Q6ZN16)
[17] = target: CAMK2A (human) (UniProt Q9UQM7)
[18] = target: PRKX (human) (UniProt P51817)
[19] = target: DAPK2 (human) (UniProt Q9UIK4)
[20] = target: STK17B (human) (UniProt O94768)
[21] = target: MAP3K10 (human) (UniProt Q02779)
[22] = target: LATS2 (human) (UniProt Q9NRM7)
[23] = target: NEK9 (human) (UniProt Q8TD19)
[24] = system: MET (human), P08581 [M1250T]
[25] = target: DAPK3 (human) (UniProt O43293)
[26] = target: RPS6KA5 KD1 (human) (UniProt O75582)
[27] = target: EPHA4 (human) (UniProt P54764)
[28] = target: PIP5K1A (human) (UniProt Q99755)
[29] = target: TGFBR1 (human) (UniProt P36897)
[30] = target: DCLK3 (human) (UniProt Q9C098)
[31] = system: PIK3CA (human), P42336 [H1047L]
[32] = target: ERBB3 (human) (UniProt P21860)
[33] = target: SBK1 (human) (UniProt Q52WX2)
[34] = target: STK11 (human) (UniProt Q15831)
[35] = target: AURKA (human) (UniProt O14965)
[36] = target: KIT (human) (UniProt P10721)
[37] = target: MAP3K2 (human) (UniProt Q9Y2U5)
[38] = target: PDGFRB (human) (UniProt P09619)
[39] = target: IKBKE (human) (UniProt Q14164)
[40] = target: TIE1 (human) (UniProt P35590)
[41] = target: HCK (human) (UniProt P08631)

Chain of PRKX (human) (P51817 whole entry, looked up): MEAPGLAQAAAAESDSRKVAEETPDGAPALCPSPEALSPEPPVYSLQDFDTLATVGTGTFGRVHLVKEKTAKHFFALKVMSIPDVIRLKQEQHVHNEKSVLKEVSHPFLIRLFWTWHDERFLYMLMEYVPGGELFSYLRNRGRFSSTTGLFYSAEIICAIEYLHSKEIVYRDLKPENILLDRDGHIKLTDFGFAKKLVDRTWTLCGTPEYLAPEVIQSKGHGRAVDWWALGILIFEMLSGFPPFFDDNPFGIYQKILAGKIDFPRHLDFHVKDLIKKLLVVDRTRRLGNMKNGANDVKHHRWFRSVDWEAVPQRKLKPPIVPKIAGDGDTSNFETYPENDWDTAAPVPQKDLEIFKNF
Chain of MAP3K10 (human) (Q02779 whole entry, looked up): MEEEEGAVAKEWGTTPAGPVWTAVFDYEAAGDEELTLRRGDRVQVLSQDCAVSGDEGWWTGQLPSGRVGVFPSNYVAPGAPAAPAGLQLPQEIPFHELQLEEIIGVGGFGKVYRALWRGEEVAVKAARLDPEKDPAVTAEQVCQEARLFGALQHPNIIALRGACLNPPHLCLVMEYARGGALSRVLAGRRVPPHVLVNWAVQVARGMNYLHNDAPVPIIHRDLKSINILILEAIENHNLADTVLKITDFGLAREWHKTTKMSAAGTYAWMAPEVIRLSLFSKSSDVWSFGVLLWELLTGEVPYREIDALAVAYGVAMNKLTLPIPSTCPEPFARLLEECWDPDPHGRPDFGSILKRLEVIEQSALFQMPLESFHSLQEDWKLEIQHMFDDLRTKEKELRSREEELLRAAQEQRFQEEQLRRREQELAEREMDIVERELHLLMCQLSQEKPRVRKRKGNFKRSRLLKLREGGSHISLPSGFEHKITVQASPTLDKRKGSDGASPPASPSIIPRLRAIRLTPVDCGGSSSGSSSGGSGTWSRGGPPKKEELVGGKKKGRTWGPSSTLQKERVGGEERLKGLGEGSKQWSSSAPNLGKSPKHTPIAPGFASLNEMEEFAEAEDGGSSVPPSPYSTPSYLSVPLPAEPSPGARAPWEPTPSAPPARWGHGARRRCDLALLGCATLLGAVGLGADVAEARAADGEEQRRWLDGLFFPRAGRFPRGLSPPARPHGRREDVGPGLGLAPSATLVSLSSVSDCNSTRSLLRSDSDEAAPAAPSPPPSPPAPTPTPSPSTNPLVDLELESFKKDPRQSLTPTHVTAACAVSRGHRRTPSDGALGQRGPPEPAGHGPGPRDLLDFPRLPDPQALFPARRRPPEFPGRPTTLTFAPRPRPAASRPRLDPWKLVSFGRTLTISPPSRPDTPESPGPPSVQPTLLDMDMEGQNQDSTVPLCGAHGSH
Chain of BRSK2 (human) (Q8IWQ3 whole entry, looked up): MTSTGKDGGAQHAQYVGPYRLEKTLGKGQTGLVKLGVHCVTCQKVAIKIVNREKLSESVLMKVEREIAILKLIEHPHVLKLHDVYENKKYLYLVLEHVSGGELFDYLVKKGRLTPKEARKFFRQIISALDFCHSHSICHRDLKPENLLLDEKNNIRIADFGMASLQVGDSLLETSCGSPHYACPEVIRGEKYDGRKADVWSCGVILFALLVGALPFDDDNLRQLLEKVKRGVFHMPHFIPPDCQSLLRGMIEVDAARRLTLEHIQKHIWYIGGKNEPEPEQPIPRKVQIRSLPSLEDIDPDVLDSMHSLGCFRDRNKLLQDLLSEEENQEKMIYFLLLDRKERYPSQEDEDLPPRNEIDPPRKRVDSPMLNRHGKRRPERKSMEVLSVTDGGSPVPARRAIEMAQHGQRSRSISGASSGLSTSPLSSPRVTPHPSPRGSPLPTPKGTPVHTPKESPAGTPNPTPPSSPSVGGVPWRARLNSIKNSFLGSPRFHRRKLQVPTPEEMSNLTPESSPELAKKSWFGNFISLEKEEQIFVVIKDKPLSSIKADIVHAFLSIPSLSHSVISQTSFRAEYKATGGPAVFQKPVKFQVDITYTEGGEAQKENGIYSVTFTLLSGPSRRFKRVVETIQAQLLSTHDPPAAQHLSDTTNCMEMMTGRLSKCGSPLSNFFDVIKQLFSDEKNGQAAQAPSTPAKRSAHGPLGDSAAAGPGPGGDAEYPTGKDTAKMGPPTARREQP
Chain of AURKA (human) (O14965 whole entry, looked up): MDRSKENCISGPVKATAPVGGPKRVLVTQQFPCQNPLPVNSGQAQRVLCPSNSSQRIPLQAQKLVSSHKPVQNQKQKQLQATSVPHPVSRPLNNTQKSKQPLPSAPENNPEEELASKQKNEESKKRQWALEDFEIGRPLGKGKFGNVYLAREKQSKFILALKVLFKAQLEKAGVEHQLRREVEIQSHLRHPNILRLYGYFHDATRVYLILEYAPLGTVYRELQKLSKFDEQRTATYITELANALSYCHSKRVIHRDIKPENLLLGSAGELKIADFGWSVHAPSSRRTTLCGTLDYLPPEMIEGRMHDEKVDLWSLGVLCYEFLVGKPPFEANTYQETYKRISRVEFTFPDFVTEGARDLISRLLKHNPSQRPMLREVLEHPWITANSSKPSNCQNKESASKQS
Chain of CSNK1G1 (human) (Q9HCP0 whole entry, looked up): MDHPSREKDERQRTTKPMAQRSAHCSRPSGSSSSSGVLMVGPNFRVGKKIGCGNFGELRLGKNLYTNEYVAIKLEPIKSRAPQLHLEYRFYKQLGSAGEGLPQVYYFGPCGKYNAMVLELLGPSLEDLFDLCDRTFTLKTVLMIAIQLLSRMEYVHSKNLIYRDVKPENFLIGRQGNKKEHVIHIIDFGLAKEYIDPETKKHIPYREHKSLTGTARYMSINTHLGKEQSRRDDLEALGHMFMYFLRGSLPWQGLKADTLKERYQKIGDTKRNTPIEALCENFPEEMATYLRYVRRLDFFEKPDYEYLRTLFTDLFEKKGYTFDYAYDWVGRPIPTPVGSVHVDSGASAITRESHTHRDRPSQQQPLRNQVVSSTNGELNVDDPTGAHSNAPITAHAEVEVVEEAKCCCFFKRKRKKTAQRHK
Chain of MYLK2 (human) (Q9H1R3 whole entry, looked up): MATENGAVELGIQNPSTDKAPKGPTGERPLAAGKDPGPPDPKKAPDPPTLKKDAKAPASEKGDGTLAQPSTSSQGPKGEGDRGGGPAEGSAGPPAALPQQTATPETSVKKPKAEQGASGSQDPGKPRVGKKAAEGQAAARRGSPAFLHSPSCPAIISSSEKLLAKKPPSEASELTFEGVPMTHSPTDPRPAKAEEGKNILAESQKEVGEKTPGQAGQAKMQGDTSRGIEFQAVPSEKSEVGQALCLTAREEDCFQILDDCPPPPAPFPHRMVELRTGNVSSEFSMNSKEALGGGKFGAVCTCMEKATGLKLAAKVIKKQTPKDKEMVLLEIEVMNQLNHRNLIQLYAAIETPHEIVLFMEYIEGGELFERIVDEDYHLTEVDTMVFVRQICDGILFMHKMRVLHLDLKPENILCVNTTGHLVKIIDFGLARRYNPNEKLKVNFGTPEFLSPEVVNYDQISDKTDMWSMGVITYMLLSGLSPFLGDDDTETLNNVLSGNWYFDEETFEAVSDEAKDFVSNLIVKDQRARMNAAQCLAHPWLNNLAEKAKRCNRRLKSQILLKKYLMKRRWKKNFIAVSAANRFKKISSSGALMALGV
Chain of PIK3CA (human) (P42336 whole entry, looked up): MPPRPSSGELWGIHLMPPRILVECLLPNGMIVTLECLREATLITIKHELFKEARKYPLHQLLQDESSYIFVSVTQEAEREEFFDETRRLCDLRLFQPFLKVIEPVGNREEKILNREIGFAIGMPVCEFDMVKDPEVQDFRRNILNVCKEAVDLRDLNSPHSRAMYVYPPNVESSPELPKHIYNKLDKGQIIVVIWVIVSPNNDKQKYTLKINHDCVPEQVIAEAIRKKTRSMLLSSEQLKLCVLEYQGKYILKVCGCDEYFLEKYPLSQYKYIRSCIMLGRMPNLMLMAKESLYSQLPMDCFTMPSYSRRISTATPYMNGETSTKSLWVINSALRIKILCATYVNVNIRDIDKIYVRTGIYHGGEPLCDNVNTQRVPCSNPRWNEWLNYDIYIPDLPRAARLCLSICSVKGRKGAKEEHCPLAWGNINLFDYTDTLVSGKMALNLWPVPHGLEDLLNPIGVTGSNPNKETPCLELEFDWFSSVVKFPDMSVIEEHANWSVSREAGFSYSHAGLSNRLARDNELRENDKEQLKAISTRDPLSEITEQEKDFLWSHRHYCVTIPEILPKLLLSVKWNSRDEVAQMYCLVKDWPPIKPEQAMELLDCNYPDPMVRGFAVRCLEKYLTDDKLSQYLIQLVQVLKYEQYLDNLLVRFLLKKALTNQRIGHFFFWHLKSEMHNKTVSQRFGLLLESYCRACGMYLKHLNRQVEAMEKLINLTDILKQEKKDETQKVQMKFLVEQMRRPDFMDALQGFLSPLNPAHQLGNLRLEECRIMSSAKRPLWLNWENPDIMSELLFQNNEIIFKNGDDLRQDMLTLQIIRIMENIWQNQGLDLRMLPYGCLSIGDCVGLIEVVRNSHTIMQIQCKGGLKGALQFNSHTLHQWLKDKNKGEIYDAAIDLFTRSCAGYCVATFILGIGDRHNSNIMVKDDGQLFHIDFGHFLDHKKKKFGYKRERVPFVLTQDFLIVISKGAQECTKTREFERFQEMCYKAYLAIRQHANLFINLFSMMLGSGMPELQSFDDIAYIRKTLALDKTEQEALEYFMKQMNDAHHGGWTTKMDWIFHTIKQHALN
Chain of MAPK11 (human) (Q15759 whole entry, looked up): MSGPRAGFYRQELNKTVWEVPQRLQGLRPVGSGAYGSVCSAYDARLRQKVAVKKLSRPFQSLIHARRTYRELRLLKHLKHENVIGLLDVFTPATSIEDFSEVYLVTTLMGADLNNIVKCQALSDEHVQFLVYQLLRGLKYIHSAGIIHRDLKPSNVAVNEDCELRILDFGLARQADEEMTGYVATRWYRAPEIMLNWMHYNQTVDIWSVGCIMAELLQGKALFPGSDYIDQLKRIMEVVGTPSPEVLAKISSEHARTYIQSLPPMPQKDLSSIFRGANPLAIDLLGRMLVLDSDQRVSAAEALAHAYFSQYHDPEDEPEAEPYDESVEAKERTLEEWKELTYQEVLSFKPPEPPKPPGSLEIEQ
Chain of PIK3CA (human), P42336 [H1047L] (P42336 whole entry H1047L, looked up): as the sequence (P42336 whole entry, looked up) above, with H1047L counted along it

kinase still bound, per cent of control [1]: 72%
kinase still bound, per cent of control [2]: 81%
kinase still bound, per cent of control [3]: 60%
kinase still bound, per cent of control [4]: 79%
kinase still bound, per cent of control [5]: 98%
kinase still bound, per cent of control [6]: 85%
kinase still bound, per cent of control [7]: 87%
kinase still bound, per cent of control [8]: 100%
kinase still bound, per cent of control [9]: 100%
kinase still bound, per cent of control [10]: 55%
kinase still bound, per cent of control [11]: 100%
kinase still bound, per cent of control [12]: 91%
kinase still bound, per cent of control [13]: 100%
kinase still bound, per cent of control [14]: 92%
kinase still bound, per cent of control [15]: 85%
kinase still bound, per cent of control [16]: 100%
kinase still bound, per cent of control [17]: 36%
kinase still bound, per cent of control [18]: 100%
kinase still bound, per cent of control [19]: 67%
kinase still bound, per cent of control [20]: 100%
kinase still bound, per cent of control [21]: 100%
kinase still bound, per cent of control [22]: 100%
kinase still bound, per cent of control [24]: 73%
kinase still bound, per cent of control [25]: 69%
kinase still bound, per cent of control [26]: 98%
kinase still bound, per cent of control [27]: 100%
kinase still bound, per cent of control [28]: 100%
kinase still bound, per cent of control [29]: 96%
kinase still bound, per cent of control [30]: 66%
kinase still bound, per cent of control [31]: 100%
kinase still bound, per cent of control [32]: 57%
kinase still bound, per cent of control [33]: 97%
kinase still bound, per cent of control [34]: 60%
kinase still bound, per cent of control [35]: 100%
kinase still bound, per cent of control [36]: 79%
kinase still bound, per cent of control [37]: 100%
kinase still bound, per cent of control [38]: 82%
kinase still bound, per cent of control [39]: 85%
kinase still bound, per cent of control [40]: 99%
kinase still bound, per cent of control [41]: 100%
Structure (SMILES): Cn1cc(C2=C(c3ccc(Cl)cc3Cl)C(=O)NC2=O)c2ccccc21
kinase still bound, per cent of control [23]: 100%

kinase still bound, per cent of control [1]: 100%
kinase still bound, per cent of control [2]: 49%
kinase still bound, per cent of control [3]: 75%
kinase still bound, per cent of control [4]: 100%
kinase still bound, per cent of control [5]: 100%
kinase still bound, per cent of control [6]: 100%
kinase still bound, per cent of control [7]: 100%
kinase still bound, per cent of control [8]: 97%
kinase still bound, per cent of control [9]: 100%
kinase still bound, per cent of control [10]: 83%
kinase still bound, per cent of control [11]: 100%
kinase still bound, per cent of control [12]: 96%
kinase still bound, per cent of control [13]: 100%
kinase still bound, per cent of control [14]: 100%
kinase still bound, per cent of control [15]: 97%
kinase still bound, per cent of control [16]: 100%
kinase still bound, per cent of control [17]: 89%
kinase still bound, per cent of control [18]: 100%
kinase still bound, per cent of control [19]: 94%
kinase still bound, per cent of control [20]: 84%
kinase still bound, per cent of control [21]: 76%
kinase still bound, per cent of control [22]: 100%
kinase still bound, per cent of control [24]: 92%
kinase still bound, per cent of control [25]: 83%
kinase still bound, per cent of control [26]: 98%
kinase still bound, per cent of control [27]: 100%
kinase still bound, per cent of control [28]: 100%
kinase still bound, per cent of control [29]: 100%
kinase still bound, per cent of control [30]: 34%
kinase still bound, per cent of control [31]: 100%
kinase still bound, per cent of control [32]: 73%
kinase still bound, per cent of control [33]: 100%
kinase still bound, per cent of control [34]: 100%
kinase still bound, per cent of control [35]: 100%
kinase still bound, per cent of control [36]: 100%
kinase still bound, per cent of control [37]: 93%
kinase still bound, per cent of control [38]: 74%
kinase still bound, per cent of control [39]: 98%
kinase still bound, per cent of control [40]: 100%
kinase still bound, per cent of control [41]: 100%
Structure (SMILES): Cc1cnc(-c2cnc(NCCNc3ccc(C#N)cn3)nc2-c2ccc(Cl)cc2Cl)[nH]1
kinase still bound, per cent of control [23]: 100%
